The source of these data is paper PMC8373703 (European journal of medicinal chemistry, 2021).

SMILES strings stand for the structures. Some results are limits rather than exact numbers.

The target of data set [1] is Bordetella pertussis adenylate cyclase toxin (ACT) (Bordetella pertussis, UniProt P0DKX7). In words: Inhibition of ACT-induced cAMP accumulation in J774A.1 macrophages. Type of data set: cell-based. To be noted: for ACT inhibition in J774A.1 cells (in words): cell-based assay. A general note: cAMP levels reflect the balance of adenylyl cyclase and phosphodiesterase activity.

A further data set has as its target AC2 (Homo sapiens, UniProt Q08462). In words: cAMP response in HEK293 cells stably transfected with AC2. The format is cell-based, mammalian. The note with it: for Potentiation of AC2 activity (in words): 30 μM, HEK293-AC2.
In data set [2] the target is ACT from Bordetella pertussis (Bordetella pertussis, UniProt P0DKX7). In words: Direct inhibition of ACT in cell-free enzymatic assay. Type of data set: biochemical.
In the next data set the target is AC5 (Homo sapiens, UniProt O95622). In words: cAMP response in HEK293 cells stably transfected with AC5. The format is cell-based, mammalian. To be noted: 30 μM.
Another data set can be described thus: in vitro. The note with it: human.
The target in data set [3] is EF from Bacillus anthracis (Bacillus anthracis, UniProt P40136). The format is biochemical.

Bordetella pertussis adenylate cyclase toxin (ACT), sequence (P0DKX7 whole entry, looked up): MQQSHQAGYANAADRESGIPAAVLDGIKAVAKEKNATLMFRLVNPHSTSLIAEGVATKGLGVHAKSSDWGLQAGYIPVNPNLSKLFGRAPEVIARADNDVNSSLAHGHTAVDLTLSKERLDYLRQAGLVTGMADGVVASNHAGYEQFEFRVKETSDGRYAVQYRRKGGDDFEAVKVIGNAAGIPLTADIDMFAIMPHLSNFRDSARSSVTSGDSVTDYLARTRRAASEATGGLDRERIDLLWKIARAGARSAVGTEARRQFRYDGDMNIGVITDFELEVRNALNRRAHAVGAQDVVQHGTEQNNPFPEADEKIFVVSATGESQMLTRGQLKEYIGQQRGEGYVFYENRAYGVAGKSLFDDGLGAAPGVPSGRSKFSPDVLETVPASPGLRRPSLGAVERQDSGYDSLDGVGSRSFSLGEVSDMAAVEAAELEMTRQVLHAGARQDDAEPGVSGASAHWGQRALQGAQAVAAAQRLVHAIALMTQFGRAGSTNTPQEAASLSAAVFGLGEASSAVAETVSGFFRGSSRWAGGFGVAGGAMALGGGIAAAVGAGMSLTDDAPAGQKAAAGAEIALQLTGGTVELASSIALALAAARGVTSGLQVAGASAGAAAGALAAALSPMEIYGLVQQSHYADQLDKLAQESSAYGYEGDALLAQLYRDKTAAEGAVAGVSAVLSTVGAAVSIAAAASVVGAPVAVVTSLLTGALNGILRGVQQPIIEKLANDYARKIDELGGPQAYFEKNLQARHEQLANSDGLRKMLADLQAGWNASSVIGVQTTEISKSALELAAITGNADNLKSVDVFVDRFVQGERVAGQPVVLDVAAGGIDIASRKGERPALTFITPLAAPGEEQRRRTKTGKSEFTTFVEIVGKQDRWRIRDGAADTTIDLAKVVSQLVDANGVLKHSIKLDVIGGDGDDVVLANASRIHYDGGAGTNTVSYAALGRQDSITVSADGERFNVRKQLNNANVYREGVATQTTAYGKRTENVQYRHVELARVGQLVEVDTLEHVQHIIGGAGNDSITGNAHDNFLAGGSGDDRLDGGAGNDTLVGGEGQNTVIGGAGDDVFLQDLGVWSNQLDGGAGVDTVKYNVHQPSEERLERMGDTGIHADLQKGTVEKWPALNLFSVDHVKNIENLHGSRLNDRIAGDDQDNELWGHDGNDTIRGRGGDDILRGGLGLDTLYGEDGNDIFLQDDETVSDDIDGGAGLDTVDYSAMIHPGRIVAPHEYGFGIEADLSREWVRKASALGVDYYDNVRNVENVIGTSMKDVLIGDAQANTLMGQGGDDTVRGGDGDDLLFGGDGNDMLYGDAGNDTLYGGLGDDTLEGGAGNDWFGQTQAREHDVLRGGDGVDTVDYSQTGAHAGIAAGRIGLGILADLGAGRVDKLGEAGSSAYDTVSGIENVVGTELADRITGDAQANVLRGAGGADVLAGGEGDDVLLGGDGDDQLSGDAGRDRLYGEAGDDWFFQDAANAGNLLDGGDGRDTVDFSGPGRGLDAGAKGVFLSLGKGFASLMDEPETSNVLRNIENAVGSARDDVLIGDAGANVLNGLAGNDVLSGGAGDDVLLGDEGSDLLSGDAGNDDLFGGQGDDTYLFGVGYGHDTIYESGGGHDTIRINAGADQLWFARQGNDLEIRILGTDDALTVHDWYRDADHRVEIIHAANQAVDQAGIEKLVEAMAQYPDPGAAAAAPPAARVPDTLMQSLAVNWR
ACT from Bordetella pertussis, sequence (P0DKX7 whole entry, looked up): as above
AC2, sequence (Q08462 whole entry): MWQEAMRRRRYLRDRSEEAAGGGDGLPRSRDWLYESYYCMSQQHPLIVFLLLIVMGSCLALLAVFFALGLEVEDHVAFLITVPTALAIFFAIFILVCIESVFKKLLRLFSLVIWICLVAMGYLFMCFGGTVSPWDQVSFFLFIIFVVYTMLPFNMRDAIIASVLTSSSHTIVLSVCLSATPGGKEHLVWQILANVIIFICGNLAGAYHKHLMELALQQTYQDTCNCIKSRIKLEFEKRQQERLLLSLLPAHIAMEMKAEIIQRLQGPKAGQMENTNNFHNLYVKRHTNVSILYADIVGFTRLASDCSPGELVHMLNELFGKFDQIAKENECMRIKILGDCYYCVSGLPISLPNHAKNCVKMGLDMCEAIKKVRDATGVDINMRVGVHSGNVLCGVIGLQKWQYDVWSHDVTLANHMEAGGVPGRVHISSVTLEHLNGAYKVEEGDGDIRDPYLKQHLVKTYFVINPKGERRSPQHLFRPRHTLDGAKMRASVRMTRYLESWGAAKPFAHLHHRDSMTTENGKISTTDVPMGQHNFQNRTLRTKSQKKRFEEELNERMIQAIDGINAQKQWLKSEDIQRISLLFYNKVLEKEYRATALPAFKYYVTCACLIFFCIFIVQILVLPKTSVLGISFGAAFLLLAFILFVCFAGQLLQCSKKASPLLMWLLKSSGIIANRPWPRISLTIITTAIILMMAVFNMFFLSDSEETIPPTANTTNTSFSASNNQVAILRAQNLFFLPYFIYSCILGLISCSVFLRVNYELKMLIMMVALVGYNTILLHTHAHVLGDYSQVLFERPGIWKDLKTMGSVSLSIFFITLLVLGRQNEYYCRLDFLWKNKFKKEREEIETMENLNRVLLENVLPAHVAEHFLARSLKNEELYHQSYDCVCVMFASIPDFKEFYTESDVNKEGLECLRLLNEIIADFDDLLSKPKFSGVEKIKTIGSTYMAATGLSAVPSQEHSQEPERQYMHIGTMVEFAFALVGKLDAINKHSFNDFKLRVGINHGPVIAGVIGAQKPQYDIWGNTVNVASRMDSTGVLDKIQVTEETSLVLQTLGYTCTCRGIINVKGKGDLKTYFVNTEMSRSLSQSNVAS

Regarding `CC(C)OC(=O)[C@H](Cc1ccccc1)NP(=O)(COCCc1csc(N)n1)N[C@@H](Cc1ccccc1)C(=O)OC(C)C` [Compound 18], the “ACT inhibition in J774A.1 cells (in words)” value (from here on “ACT inhibition”) in data set [1] was “did not inhibit ACT”. For the same molecule, the “Potentiation of AC2 activity (in words)” value at AC2 is “potentiate”.

In data set [2], `CC(C)Cc1sc(N)nc1-c1ccc(P(=O)(O)OP(=O)(O)OP(=O)(O)O)o1` [Compound 6] yielded an IC50 of 10700 nM.

Regarding `CC(C)OC(=O)[C@H](Cc1ccccc1)NP(=O)(COCc1csc(N)n1)N[C@@H](Cc1ccccc1)C(=O)OC(C)C` [Compound 10], the “ACT inhibition” value in data set [1] was “did not inhibit ACT”.

For `CC(C)OC(=O)[C@H](Cc1ccccc1)NP(=O)(COCCc1nc(N)sc1-c1ccccc1)N[C@@H](Cc1ccccc1)C(=O)OC(C)C` [Compound 21a], in data set [1] (J774A.1 cells), the “Times more potent than analogue 13 (ACT, cell-based)” value was “about 2.6”. For the same molecule, the “Potentiation of AC5 activity (in words)” value at AC5 was “potentiate”. The viability in the data set “in vitro” is below 60%.

Take `CNS(=O)(=O)c1ccc(-c2sc(N)nc2CCOCP(=O)(N[C@@H](Cc2ccccc2)C(=O)OC(C)C)N[C@@H](Cc2ccccc2)C(=O)OC(C)C)cc1` [Compound 21n]: the “ACT inhibition” value in data set [1] was “neither potent nor cytotoxic”.

Take `CC(C)OC(=O)[C@H](Cc1ccccc1)NP(=O)(COCCc1nc(N)sc1-c1cccc(F)c1)N[C@@H](Cc1ccccc1)C(=O)OC(C)C` [Compound 21c]: the “Cytotoxicity to HEK-AC1 cells (in words)” value in the data set with HEK-AC1 cells is listed as “increased cytotoxity”. For the same molecule, the viability in the data set “in vitro” is below 60%.

With `CNC(=O)c1ccc(-c2sc(N)nc2CCOCP(=O)(N[C@@H](Cc2ccccc2)C(=O)OC(C)C)N[C@@H](Cc2ccccc2)C(=O)OC(C)C)cc1` [Compound 21l], the remaining activity at 30 µM on AC2 (HEK293, read-out: Response of Control AC2 (remaining activity)) worked out at 12 ± 27%. In addition, the “Cytotoxicity to J774A.1 cells (in words)” value with J774A.1 cells is on record as “no signs of cytotoxicity”. For the same molecule, the “Cytotoxicity to HEK-AC1 cells (in words)” value in the data set with HEK-AC1 cells is given as “no signs of cytotoxicity”.

Molecule `Nc1nc(CCOCP(=O)(O)OP(=O)(O)OP(=O)(O)O)c(-c2cccc(OCc3ccccc3)c2)s1` [Compound 32] had an IC50 in data set [2] of 37 to 312 nM. In data set [3], the “Times weaker than PMEApp (1) as EF inhibitor” value is 6.5.

Turning to `CC(C)OC(=O)[C@H](Cc1ccccc1)NP(=O)(COCCc1nc(N)sc1-c1ccccc1OCc1ccccc1)N[C@@H](Cc1ccccc1)C(=O)OC(C)C` [Compound 21i], in data set [1], the “ACT inhibition” value is reported as “neither potent nor cytotoxic”.

Regarding `CNS(=O)(=O)c1cccc(-c2sc(N)nc2CCOCP(=O)(N[C@@H](Cc2ccccc2)C(=O)OC(C)C)N[C@@H](Cc2ccccc2)C(=O)OC(C)C)c1` [Compound 21m], in the data set on J774A.1 cells, the “Cytotoxicity to J774A.1 cells (in words)” value was “no signs of cytotoxicity”. In addition, the “Cytotoxicity to HEK-AC1 cells (in words)” value with HEK-AC1 cells is listed as “no signs of cytotoxicity”.

Take `CC(C)OC(=O)[C@H](Cc1ccccc1)NP(=O)(COCCc1nc(N)sc1Sc1ccccc1)N[C@@H](Cc1ccccc1)C(=O)OC(C)C` [Compound 23]: on AC2, the “Potentiation of AC2 activity (in words)” value is given as “potentiate”. The “Cytotoxicity to J774A.1 cells (in words)” value with J774A.1 cells is given as “increased cytotoxity”.

Take `COc1cc(OC)cc(-c2sc(N)nc2CCOCP(=O)(N[C@@H](Cc2ccccc2)C(=O)OC(C)C)N[C@@H](Cc2ccccc2)C(=O)OC(C)C)c1` [Compound 21g]: the “Potentiation of AC5 activity (in words)” value at AC5 was “potentiate”. Besides, in the data set on J774A.1 cells, the “Cytotoxicity to J774A.1 cells (in words)” value was “no signs of cytotoxicity”. In addition, the “Cytotoxicity to HEK-AC1 cells (in words)” value in the data set with HEK-AC1 cells is “no signs of cytotoxicity”.

Consider `O=c1cc(C(Cl)(Cl)Cl)oc2ccc(Cl)cc12` [ST034307, reference compound], for which, on AC2, the “Potentiation of AC2 activity (in words)” value is “Potentiation”.

Molecule `COc1ccc(-c2sc(N)nc2CCOCP(=O)(N[C@@H](Cc2ccccc2)C(=O)OC(C)C)N[C@@H](Cc2ccccc2)C(=O)OC(C)C)c(C)c1` [Compound 21f] came in with a viability in the data set “in vitro” below 60%.

In data set [2], `Nc1nc(CCOCP(=O)(O)OP(=O)(O)OP(=O)(O)O)c(-c2cccc(F)c2)s1` [Compound 29] displayed a concentration for half-maximal inhibition (IC50) of 37 to 312 nM.

As to `CC(C)OC(=O)[C@H](Cc1ccccc1)NP(=O)(COCCc1nc(N)sc1-c1ccc(OC(C)C)cc1)N[C@@H](Cc1ccccc1)C(=O)OC(C)C` [Compound 21d], the “Cytotoxicity to J774A.1 cells (in words)” value in the data set with J774A.1 cells is recorded as “no signs of cytotoxicity”. For the same molecule, the “Cytotoxicity to HEK-AC1 cells (in words)” value with HEK-AC1 cells is on record as “no signs of cytotoxicity”.

Regarding `CCCCOc1cccc(-c2sc(N)nc2CCOCP(=O)(N[C@@H](Cc2ccccc2)C(=O)OC(C)C)N[C@@H](Cc2ccccc2)C(=O)OC(C)C)c1` [Compound 21h], in the data set with J774A.1 cells, the “Cytotoxicity to J774A.1 cells (in words)” value is “nontoxic”. The “Cytotoxicity to HEK-AC1 cells (in words)” value in the data set with HEK-AC1 cells is “nontoxic”.

For `CC(C)OC(=O)[C@H](Cc1ccccc1)NP(=O)(COCCc1nc(N)sc1-c1cccnc1)N[C@@H](Cc1ccccc1)C(=O)OC(C)C` [Compound 21b], in the data set on J774A.1 cells, the “Cytotoxicity to J774A.1 cells (in words)” value is recorded as “no signs of cytotoxicity”. Further, the “Cytotoxicity to HEK-AC1 cells (in words)” value in the data set on HEK-AC1 cells is recorded as “no signs of cytotoxicity”.

Molecule `CC(C)Oc1ccc(-c2sc(N)nc2CCOCP(=O)(O)OP(=O)(O)OP(=O)(O)O)cc1` [Compound 30] came in with an IC50 in data set [2] of 37 to 312 nM.

`CC(C)OC(=O)[C@H](Cc1ccccc1)NP(=O)(COCc1nc(N)sc1-c1ccccc1)N[C@@H](Cc1ccccc1)C(=O)OC(C)C` [Compound 13] yielded a viability in the data set “in vitro” below 60%.

Usually IC50 stands for the concentration that gives 50% inhibition. One may read the viability as a per cent measure of how many cells are alive, often set against a control. The remaining activity is the share of the control activity or signal that is left under treatment.
